In patent US20220202906A1, “VASOACTIVE INTESTINAL PEPTIDE (VIP) FOR USE IN THE TREATMENT OF DRUG-INDUCED PNEUMONITIS” (ADVITA L[…], priority 2019, published 2022):

Legend:
[1] = human, in vivo
[2] = sarcoidosis, inhaled aerosolized VIP; cited from earlier work
[3] = Blood level of VIP after aerosol administration; format: in vivo
Text: This is especially unexpected as the treatment with aerosols is normally regarded to be only efficient if inhaled noxes are the cause of the pulmonary defects. In the context of the present invention, a systemic substance is, however, the cause of drug-induced pneumonitis (such as CIP) and therefore topic administration is not expected to have any great effect.

[4] = 50 μg four times daily by inhalation, 28 days; cited from earlier work
[5] = Aerosol characterisation with M-Neb dose+ mesh nebulizer MN-300/8 and COPLEY next generation impactor (NGI); format: physicochemical; conditions: VIP dissolved in 0.9% NaCl
Text: Using the M-Neb® dose+ mesh nebulizer MN-300/8 and the respective mouthpiece, VIP has been tested with the COPLEY next generation impactor (NGI). The mass median aerodynamic diameter (MMD) of VIP dissolved in 0.9% NaCl was 3.3-3.5 μm per emitted particle.

[6] = Off-label inhaled VIP therapy in a patient with checkpoint inhibitor-induced pneumonitis; format: in vivo, human
Experimental: A patient, who was treated with checkpoint inhibitors, developed CIP and steroid treatment led to insufficient control. Because of missing other approved therapeutic options the patient was treated off-label with inhaled VIP therapy initiated at a dose of 4×70 μg/ml per day dosage (280 μg per day with overnight break).

[7] = CIP patient, inhaled VIP 280 μg per day

CC[C@H](C)[C@H](NC(=O)[C@H](CO)NC(=O)[C@H](CC(N)=O)NC(=O)[C@H](CC(C)C)NC(=O)[C@H](Cc1ccc(O)cc1)NC(=O)[C@H](CCCCN)NC(=O)[C@H](CCCCN)NC(=O)[C@@H](NC(=O)[C@H](C)NC(=O)[C@H](CCSC)NC(=O)[C@H](CCC(N)=O)NC(=O)[C@H](CCCCN)NC(=O)[C@H](CCCNC(=N)N)NC(=O)[C@H](CC(C)C)NC(=O)[C@H](CCCNC(=N)N)NC(=O)[C@@H](NC(=O)[C@H](Cc1ccc(O)cc1)NC(=O)[C@H](CC(N)=O)NC(=O)[C@H](CC(=O)O)NC(=O)[C@@H](NC(=O)[C@H](Cc1ccccc1)NC(=O)[C@@H](NC(=O)[C@H](C)NC(=O)[C@H](CC(=O)O)NC(=O)[C@H](CO)NC(=O)[C@@H](N)Cc1c[nH]cn1)C(C)C)[C@@H](C)O)[C@@H](C)O)C(C)C)C(=O)N[C@@H](CC(C)C)C(=O)N[C@@H](CC(N)=O)C(N)=O [VIP, Vasoactive intestinal peptide]
clinical outcome [1]: clinical amelioration | TNF-release [2]: decrease of TNF-release | regulatory T-cells [2]: increase of regulatory T-cells | symptoms [2]: symptomatic relief | blood level of VIP [3]: does not lead to an elevated blood level of VIP | tolerability / adverse events [4]: well tolerated without serious adverse events | dose delivered at the mouthpiece ([5]; M-Neb dose+ MN-300/8): 90.2 % of the tested dosages | particles with a diameter ([5]; M-Neb dose+ MN-300/8): 85.7% | mass median aerodynamic diameter (MMD) per emitted particle ([5]; M-Neb dose+ MN-300/8 with mouthpiece): 3.3-3.5 μm | alveolar inflammation as measured by bronchoalveolar lavage [6, 7]: dampened by an increase of regulatory T-cell | patient's general health [6, 7]: ameliorated | radiological alterations (e.g. consolidations) [6, 7]: diminished | lung function ([6]; CIP patient, inhaled VIP 4×70 μg per day (280 μg per day)): normalized within six months of treatment | side effects on the patient's immune system ([6]; VIP inhalation in CIP): does not suffer from severe side effects on the patient's immune system
